The results in this text go back to article PMC9139161, “Phenolics from Chrozophora oblongifolia Aerial Parts as Inhibitors of α-Glucosidases and Advanced Glycation End Products: In-Vitro Assessment, Molecular Docking and Dynamics Studies” (Biology, 2022).

A short description of experiment [1]: Metal chelation assay (ferrozine). Conditions: concentration-response curve. The method, then:
Isolated compounds were dissolved in DMSO to prepare a concentration of 0.5 mg/mL, meanwhile, the positive control (EDTA) was used to prepare a stock solution of 100 µM in water; from which six concentrations were prepared including 5, 10, 20, 40, 50 and 80 µM to construct the dose-response curve. The assay was carried out as previously reported, with minor modifications. Briefly, in 96 wells plate (n = 6) 20 µL of the freshly prepared ferrous sulfate (0.3 mM) was mixed with 50 µL of the tested compound and incubated with 30 µL of ferrozine (0.8 mM) for 10 min at room temperature. Finally, reduction in color intensity was assessed at 540 nm using a microplate reader (Tecan, San Jose, CA, USA). Data are represented as means (n = 3) ± SD and the antioxidant effect of the extracts was calculated as µM EDTA equivalents by substitution in the linear regression equation (Supplementary Figure S4).

Experiment [2] deals with advanced glycation end products (AGEs) formation, BSA-fructose model. Description: AGEs formation inhibition, BSA-fructose assay. Conditions: AGEs fluorescence, 72 h, 37 °C; read-out: BSA-Fructose Model IC50 (Mean ± SE). In kind it is biochemical. The method, then:
(§1) The isolated compounds were prepared at final concentrations of 500 µM in DMSO in the BSA-fructose assay, and 1000 µM in all other AGEs assays. Compounds that exceeded 50% inhibition at this concentration were serially diluted to determine their IC50. All tests were conducted using quercetin (positive control).
According to the previous report, the inhibition test for AGE formation was assessed using the BSA-fructose model. Briefly, BSA (50 mg/mL) and fructose (1.25 M) (in 200 mM phosphate buffer, pH 7.4, with 0.02% sodium azide) were incubated with Sample/blank in the dark for 72 h at 37 °C, (1:1:1 by volume). On a microplate reader (Fluostar Omega BMG Labtech, Ortenberg, Germany), fluorescent AGEs were detected using excitation and emission wavelengths of 355 nm and 460 nm, respectively. Triplicates of all experiments were performed, and the percentage of AGEs inhibition was calculated.

In experiment [3] the test system is advanced glycation end products (AGEs) formation, arginine-methylglyoxal model. The experiment can be described thus: AGEs formation inhibition, arginine-methylglyoxal assay. In kind it is biochemical. Conditions: AGEs fluorescence, 72 h, 37 °C; read-out: Arginine-Methylglyoxal Model IC50 (Mean ± SE). The method, then:
as §1
The determination of the inhibitory effect of the isolated compounds on the formation of AGEs in the arginine methylglyoxal model was used as described previously with slight modification. Briefly, in black 96-microwell plates, a sample was incubated for 72 h at 37 °C in the dark with methylglyoxal (53.3 mM, in distilled water) and 106.6 mM arginine (in 200 mM phosphate buffer, pH 7.4, with 0.02% sodium azide), (1:1:1 v/v/v). On a microplate reader (Fluostar Omega/BMG Labtech/Germany), fluorescent AGEs were detected using excitation and emission wavelengths of 355 nm and 460 nm, respectively. Triplicates of all experiments were performed.

For experiment [4], the system named is advanced glycation end products (AGEs) formation, BSA-methylglyoxal model. Description: AGEs formation inhibition, BSA-methylglyoxal assay. In kind it is biochemical. Conditions: AGEs fluorescence, 72 h, 37 °C; read-out: BSA-Methylglyoxal Model IC50 (Mean ± SE). The method, then:
as §1
AGEs inhibitory activity of the isolated compounds was determined according to the reported procedures with slight modification. Briefly, in black 96-microwell plates, samples were incubated for 72 h at 37 °C in the dark with bovine serum albumin (BSA, 50 mg/mL) (in 200 mM phosphate buffer, pH 7.4, with 0.02% sodium azide) and methyl-glyoxal (53.3 mM, in distilled water), (1:1:1 v/v/v). On a microplate reader (Fluostar Omega/BMG Labtech/Germany), fluorescent AGEs were detected using excitation and emission wavelengths of 355 nm and 460 nm, respectively. Triplicates of all experiments were performed.

The nature of a further experiment: DPPH assay. Conditions: read-out: DPPH assay IC50 (Mean ± SE). As for the experimental part:
Isolated compounds were prepared in final concentrations of 1000 µM in DMSO. Compounds that exceeded 50% inhibition at this concentration were serially diluted to determine their IC50. Ascorbic acid was used as a positive control, prepared in a concentration of 100 µM in water from which six concentrations were prepared to calculate its IC50. The method is based on the reduction of free radical of 2,2-diphenyl-1-picrylhydrazyl (DPPH). Briefly, in a 96-well plate, 20 μL of the isolated compound was incubated for 20 min in the absence of light with 180 μL of DPPH reagent (100 μM). The reduction of intensity in the color of DPPH was assessed on a microplate reader (TECAN, Männedorf, Switzerland) at 540 nm (Supplementary Table S2).
For orientation: DPPH is a stable violet radical that fades when it is reduced.

Another experiment is described as follows: ABTS assay. Conditions: concentration-response curve. As for the experimental part:
DMSO was used for the preparation of 0.5 mg/mL concentrations of isolated compounds, meanwhile, the positive control (ascorbic acid) was used to prepare a stock solution of 1000 µM in water; from which seven concentrations were prepared including 7.812, 15.625, 31.25, 62.5, 125, 250 and 500 µM to construct the concentration-response curve (Supplementary Data Figure S2). The activity of the tested compounds to scavenge the free radicals of ABTS (2,2′-azino-bis (3-ethylbenzothiazoline-6-sulfonic acid)) was assessed according to the methodology reported previously with slight modifications.
Five milliliters of aqueous solution (7 mM) of ABTS was mixed with 88 µL potassium persulfate (140 mM) and the mixture was kept in the dark for 16 h to produce ABTS radical cation (ABTS^•+). Then methanol was added to the reaction mixture to dilute the formed ABTS^•+ solution to an absorbance of 0.700 (1:50) at 690 nm.
Ten microliters of the tested compound were incubated with 190 μL of ABTS^•+ solution in a 96-well plate for thirty minutes in the dark and the absorbance was measured later using a microplate reader (TECAN, Männedorf, Switzerland) at 690 nm. Data are represented as means (n = 3) ± SD and the antioxidant effect of the tested compounds was calculated as µM Ascorbic acid equivalents by substitution in the linear regression equation (Supplementary Figure S2).

Take `O=C(O)CN(CCN(CC(=O)O)CC(=O)O)CC(=O)O` [EDTA, reference compound]: the “Metal chelation % inhibition” value amounted to 8.429% in experiment [1] (5 µM); 13.464% in experiment [1] (10 µM); 19.624% in experiment [1] (20 µM); 41.866% in experiment [1] (40 µM); 48.303% in experiment [1] (50 µM); 72.307% in experiment [1] (80 µM).

For the compound `O=c1c(O)c(-c2ccc(O)c(O)c2)oc2cc(O)cc(O)c12` [Quercetin, quercetin, reference compound], the IC50 is 62 µM in experiment [2], 536 µM in experiment [3] and 941 µM in experiment [4].

Turning to `O=C1O[C@H]([C@@H](O)CO)C(O)=C1O` [ascorbic acid, Ascorbic acid], the IC50 in “DPPH assay” worked out at 28 µM. Moreover, the ABTS % inhibition in the experiment “ABTS assay” (7.8125 µM) was 2.8930%; in “ABTS assay” (15.625 µM), 3.7803%; in “ABTS assay” (31.25 µM), 5.5156%; in “ABTS assay” (62.5 µM), 9.7291%; in “ABTS assay” (125 µM), 16.88%; in “ABTS assay” (250 µM) it was 33.5451%. Moreover, the ABTS % inhibition in the experiment “ABTS assay” (500 µM) came out at 62.86%.

A word on the IC50: it is the point on the concentration scale where inhibition reaches its midpoint.
